These results are taken from patent US10238761B1, “Method and an integrated device for an area decontamination process” (NANOMIST SYSTEMS, LLC, priority 2013, dated 2019).

Like-named read-outs stand apart in the source and are kept apart here.

This experiment concerns G. Stearothermophilus. Here is the method:
Tests were conducted in a 36 m^3 room without carpet (i.e., with tiled floor) and also in a 110 m^3 room with wall-to-wall carpet and configured to simulate a larger room with an attached bathroom with a door opening. Biological indicator (BI) test disks inoculated with 4-log, 5-log and 6-log populations of G. Stearothermophilus prepared by Mesa Labs were used.
BI test disks were placed at various locations within the room and doors and windows and other ventilation to the room was closed. Room temperature was not intentionally controlled, but was maintained at between about 22° C. and 26° C. The test area was pre-conditioned to a relative humidity of about 50%. A predetermined amount of biocide, a 35% hydrogen peroxide vapor, was rapidly injected into the room, with the rate of injection being about 50 g per minute or producing about 17.5 g of HP vapor per minute. The “inactivation time” or time from the initiation of the biocide injection through the residence time was a total of about 10 minutes. The room was then aerated until the concentration of biocide dropped to about 1 ppm. The overall cycle time was then calculated as the time for biocide injection, biocide contact or inactivation time, and the aeration time.

Regarding `OO` [35% HP solution, hydrogen peroxide], the “Kill Efficiency” value is 5-log (Test 3: 36 m^3 room, injected mass 2.4 g/m^3, HP mass 86.4 g, injection time 12.7 min, injection rate 6.8 g/min (0.19 g/min/m3) of HP); 6-log (Test 4: 36 m^3 room, injected mass 2.4 g/m^3, HP mass 86.4 g, injection time 8.3 min, injection rate 10.4 g/min (0.29 g/min/m3) of HP); 5-log (Test 7: 36 m^3 room, injected mass 2 g/m^3, HP mass 72 g, injection time 12 min, injection rate 6.0 g/min (0.17 g/min/m3) of HP); 6-log (Test 8: 36 m^3 room, injected mass 2 g/m^3, HP mass 72 g, injection time 6.5 min, injection rate 11.1 g/min (0.31 g/min/m3) of HP); 5-log (Test 9: 36 m^3 room, injected mass 2 g/m^3, HP mass 72.7 g, injection time 9.6 min, injection rate 7.6 g/min (0.21 g/min/m3) of HP); 6-log (Test 10: 36 m^3 room, injected mass 2 g/m^3, HP mass 73.1 g, injection time 6.5 min, injection rate 11.2 g/min (0.31 g/min/m3) of HP). The “Kill Efficiency” value is recorded as 5-log (Test 11: 36 m^3 room, injected mass 2.2 g/m^3, HP mass 79.6 g, injection time 13 min, injection rate 6.1 g/min (0.17 g/min/m3) of HP); 6-log (Test 12: 36 m^3 room, injected mass 2.1 g/m^3, HP mass 74.9 g, injection time 4.3 min, injection rate 17.4 g/min (0.48 g/min/m3) of HP); 4-log (Test A: 36-m^3 room, tile, injected mass 0.6 g/m^3, HP mass 22 g, injection rate 11.4 g/min, injection time 1.8 min, residence time 8.2 min); 5-log (Test B: 36-m^3 room, tile, injected mass 0.7 g/m^3, HP mass 26 g, injection rate 11.0 g/min, injection time 2.4 min, residence time 7.6 min); 6-log (Test C: 36-m^3 room, tile, injected mass 1.7 g/m^3, HP mass 59 g, injection rate 12.3 g/min, injection time 4.8 min, residence time 5.2 min); 5-log (Test D: 100-m^3 room, carpet, second doorway with non-line-of-sight BI, injected mass 0.8 g/m^3, HP mass 91 g, injection rate 13.0 g/min, injection time 7.0 min, residence time 3.0 min). In addition, the “Kill Efficiency” value (Test E: 100-m^3 room, carpet, second doorway with non-line-of-sight BI, injected mass 1.8 g/m^3, HP mass 201 g, injection rate 21.1 g/min, injection time 9.5 min, residence time 0.5 min) is 6-log.
